# Assay results published in patent publication US9695155B2, “Herbicidal substituted pyrimidinyloxy benzene compounds” (E. I. DU PONT DE NEMOURS AND COMPANY, priority 2013, dated 2017).
# What was measured:
# Experiment in all cases: Test E preemergence
# velvetleaf = assay type: in vivo, Abutilon theophrasti; conditions: for Velvetleaf plant response rating: scale 0 to 100 (0 no effect, 100 complete control)
# In short: (§1)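 Test chemicals formulated in a non-phytotoxic solvent mixture containing a surfactant were applied preemergence to seeds in silt loam soil or postemergence to plants at the 1- to 4-leaf stage in potting mix. After 14 to 21 days in a greenhouse, injury was visually rated against controls on a 0-100 scale (0 = no effect, 100 = complete control).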
# lambsquarters = assay type: in vivo, Chenopodium album; conditions: for Lambsquarters plant response rating: scale 0 to 100 (0 no effect, 100 complete control)
# Source text: (§2) Seeds of plant species selected from corn (Zea mays), soybean (Glycine max), velvetleaf (Abutilon theophrasti), lambsquarters (Chenopodium album), wild poinsettia (Euphorbia heterophylla), palmer pigweed (Amaranthus palmeri), waterhemp (common waterhemp, Amaranthus rudis), surinam grass (Brachiaria decumbens), large (Lg) crabgrass (Digitaria sanguinalis), Brazilian crabgrass (Digitaria horizontalis), fall panicum (Panicum dichotomiflorum), giant foxtail (Setaria faberii), green foxtail (Setaria viridis), goosegrass (Eleusine indica), johnsongrass (Sorghum halepense), ragweed (common ragweed, Ambrosia elatior), barnyardgrass (Echinochloa crus-galli), sandbur (southern sandbur, Cenchrus echinatus), arrowleaf sida (Sida rhombifolia), Italian ryegrass (Lolium multiflorum), dayflower (Virginia (VA) dayflower, Commelina virginica), field bindweed (Convolvulus arvensis), morningglory (Ipomoea coccinea), nightshade (eastern black nightshade, Solanum ptycanthum), kochia (Kochia scoparia), yellow nutsedge (Cyperus esculentus), cocklebur (common cocklebur, Xanthium strumarium), smartweed (ladysthumb smartweed, and hairy beggarticks (Bidens pilosa), were planted into a silt loam soil and treated preemergence with test chemicals formulated in a non-phytotoxic solvent mixture which included a surfactant.
# (§3) At the same time, plants from these crop and weed species and also horseweed (Canada horseweed, Conyza canadensis), waterhemp_RES1, (ALS & Triazine resistant common waterhemp, Amaranthus rudis), and waterhemp_RES2, (ALS & HPPD resistant common waterhemp, Amaranthus rudis) were planted in pots containing Redi-Earth® planting medium (Scotts Company, 14111 Scottslawn Road, Marysville, Ohio 43041) comprising spaghnum peat moss, vermiculite, wetting agent and starter nutrients were treated with postemergence applications of test chemicals formulated in the same manner. Plants ranged in height from 2 to 18 cm for postemergence treatments (1- to 4-leaf stage). Treated plants and controls were maintained in a greenhouse for 14 to 21 days, after which time all species were compared to controls and visually evaluated. Plant response ratings, summarized in Table E, are based on a scale of 0 to 100 where 0 is no effect and 100 is complete control. A dash (-) response means no test result.
# surinam grass = assay type: in vivo, Brachiaria decumbens; conditions: for Surinam Grass plant response rating: scale 0 to 100 (0 no effect, 100 complete control)
# In short: as §1
# Brazilian crabgrass = assay type: in vivo, Digitaria horizontalis; conditions: for Crabgrass, Brazil plant response rating: scale 0 to 100 (0 no effect, 100 complete control)
# In short: as §1
# fall panicum = assay type: in vivo, Panicum dichotomiflorum; conditions: for Panicum, Fall plant response rating: scale 0 to 100 (0 no effect, 100 complete control)
# In short: as §1
# giant foxtail = assay type: in vivo, Setaria faberii; conditions: for Foxtail, Giant plant response rating: scale 0 to 100 (0 no effect, 100 complete control)
# In short: as §1
# green foxtail = assay type: in vivo, Setaria viridis; conditions: for Foxtail, Green plant response rating: scale 0 to 100 (0 no effect, 100 complete control)
# In short: as §1
# barnyardgrass = assay type: in vivo, Echinochloa crus-galli; conditions: preemergence; for Barnyardgrass plant response rating: scale 0 to 100 (0 no effect, 100 complete control)
# Source text: as §2, §3
# morningglory = assay type: in vivo, Ipomoea coccinea; conditions: for Morningglory plant response rating: scale 0 to 100 (0 no effect, 100 complete control)
# In short: as §1
# nightshade = assay type: in vivo, Solanum ptycanthum; conditions: for Nightshade plant response rating: scale 0 to 100 (0 no effect, 100 complete control)
# In short: as §1
# kochia = assay type: in vivo, Kochia scoparia; conditions: for Kochia plant response rating: scale 0 to 100 (0 no effect, 100 complete control)
# Source text: as §2, §3
# [1] = 8 g ai/ha, scale 0 to 100, 0 is no effect, 100 is complete control
# [2] = 125 g ai/ha, scale 0 to 100, 0 no effect, 100 complete control
smiles,measurement,setting,value
NC(=S)c1cccc(Oc2ncc(Cl)cn2)c1-n1cc(Cl)cn1 [Compound 292],"Plant response rating, Velvetleaf",velvetleaf; [1],0
same,Velvetleaf plant response rating,velvetleaf; 31 g ai/ha,30
same,Velvetleaf plant response rating,velvetleaf; 62 g ai/ha,35
same,"Plant response rating, Velvetleaf",velvetleaf; [2],90
same,"Plant response rating, Lambsquarters",lambsquarters; [1],0
same,Lambsquarters plant response rating,lambsquarters; 31 g ai/ha,0
same,Lambsquarters plant response rating,lambsquarters; 62 g ai/ha,25
same,"Plant response rating, Lambsquarters",lambsquarters; [2],100
same,"Plant response rating, Surinam Grass",surinam grass; [1],0
same,Surinam Grass plant response rating,surinam grass; 31 g ai/ha,0
same,Surinam Grass plant response rating,surinam grass; 62 g ai/ha,10
same,"Plant response rating, Surinam Grass",surinam grass; [2],20
same,"Plant response rating, Crabgrass, Brazil",Brazilian crabgrass; [1],0
same,"Crabgrass, Brazil plant response rating",Brazilian crabgrass; 16 g ai/ha,10
same,"Crabgrass, Brazil plant response rating",Brazilian crabgrass; 31 g ai/ha,40
same,"Crabgrass, Brazil plant response rating",Brazilian crabgrass; 62 g ai/ha,100
same,"Plant response rating, Crabgrass, Brazil",Brazilian crabgrass; [2],100
same,"Plant response rating, Panicum, Fall",fall panicum; [1],0
same,"Panicum, Fall plant response rating",fall panicum; 31 g ai/ha,0
same,"Panicum, Fall plant response rating",fall panicum; 62 g ai/ha,90
same,"Plant response rating, Panicum, Fall",fall panicum; [2],100
same,"Plant response rating, Foxtail, Giant",giant foxtail; [1],0
same,"Foxtail, Giant plant response rating",giant foxtail; 16 g ai/ha,0
same,"Foxtail, Giant plant response rating",giant foxtail; 31 g ai/ha,5
same,"Foxtail, Giant plant response rating",giant foxtail; 62 g ai/ha,80
same,"Plant response rating, Foxtail, Giant",giant foxtail; [2],95
same,"Plant response rating, Foxtail, Green",green foxtail; [1],0
same,"Foxtail, Green plant response rating",green foxtail; 16 g ai/ha,0
same,"Foxtail, Green plant response rating",green foxtail; 31 g ai/ha,10
same,"Foxtail, Green plant response rating",green foxtail; 62 g ai/ha,25
same,"Plant response rating, Foxtail, Green",green foxtail; [2],75
same,"Plant response rating, Barnyardgrass",barnyardgrass; [1],0
same,Barnyardgrass plant response rating,barnyardgrass; 16 g ai/ha,0
same,Barnyardgrass plant response rating,barnyardgrass; 31 g ai/ha,0
same,Barnyardgrass plant response rating,barnyardgrass; 62 g ai/ha,0
same,"Plant response rating, Barnyardgrass",barnyardgrass; [2],40
same,"Plant response rating, Morningglory",morningglory; [1],0
same,Morningglory plant response rating,morningglory; 31 g ai/ha,0
same,Morningglory plant response rating,morningglory; 62 g ai/ha,15
same,"Plant response rating, Morningglory",morningglory; [2],50
same,"Plant response rating, Nightshade",nightshade; [1],0
same,Nightshade plant response rating,nightshade; 31 g ai/ha,5
same,Nightshade plant response rating,nightshade; 62 g ai/ha,70
same,"Plant response rating, Nightshade",nightshade; [2],80
same,"Plant response rating, Kochia",kochia; [1],0
same,Kochia plant response rating,kochia; 31 g ai/ha,0
same,Kochia plant response rating,kochia; 62 g ai/ha,70
same,"Plant response rating, Kochia",kochia; [2],98
